Here are results for one molecule from ChEMBL document CHEMBL6103622 (J Med Chem, 2025).

Activity calls are given as the source filed them. No cut-off for these calls is given here.

The koff is the rate constant with which the complex falls apart. The term clearance denotes the volume of plasma or blood freed of the substance per unit of time.

Data set [1] has as its target T1, Macrophage colony-stimulating factor 1 receptor (Mus musculus) (UniProt P09581).
T1 sequence (whole entry): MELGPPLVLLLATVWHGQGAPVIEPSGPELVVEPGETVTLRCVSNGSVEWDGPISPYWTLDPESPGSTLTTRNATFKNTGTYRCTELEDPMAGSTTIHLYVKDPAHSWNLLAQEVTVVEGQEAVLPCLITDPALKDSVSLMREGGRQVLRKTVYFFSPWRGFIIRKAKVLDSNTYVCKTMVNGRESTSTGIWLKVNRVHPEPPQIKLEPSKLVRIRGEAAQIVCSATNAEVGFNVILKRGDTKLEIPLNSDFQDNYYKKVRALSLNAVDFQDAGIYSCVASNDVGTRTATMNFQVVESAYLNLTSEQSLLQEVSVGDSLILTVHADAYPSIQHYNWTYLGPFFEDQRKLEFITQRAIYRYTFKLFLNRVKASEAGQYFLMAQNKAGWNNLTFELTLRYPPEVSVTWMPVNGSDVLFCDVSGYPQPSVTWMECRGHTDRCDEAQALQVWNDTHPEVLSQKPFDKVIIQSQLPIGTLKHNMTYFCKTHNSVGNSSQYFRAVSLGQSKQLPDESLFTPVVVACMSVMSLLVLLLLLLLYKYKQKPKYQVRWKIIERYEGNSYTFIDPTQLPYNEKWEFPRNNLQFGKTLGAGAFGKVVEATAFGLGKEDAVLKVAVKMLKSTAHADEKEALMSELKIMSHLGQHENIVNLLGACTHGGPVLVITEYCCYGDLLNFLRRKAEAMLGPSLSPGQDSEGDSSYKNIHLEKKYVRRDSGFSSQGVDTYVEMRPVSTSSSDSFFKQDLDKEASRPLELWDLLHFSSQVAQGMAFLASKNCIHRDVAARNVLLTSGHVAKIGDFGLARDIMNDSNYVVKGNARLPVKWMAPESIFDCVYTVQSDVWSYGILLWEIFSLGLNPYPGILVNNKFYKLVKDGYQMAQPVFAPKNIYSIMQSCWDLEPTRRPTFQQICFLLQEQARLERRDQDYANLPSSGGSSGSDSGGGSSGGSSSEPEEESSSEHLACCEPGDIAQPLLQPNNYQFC
Description: Inhibition of CSF-1R signaling pathway activation in female C57BL/6 mouse BMDM cells assessed as reduction in AKT phosphorylation at Ser473 residue at 100 nM preincubated with compounds for 4 hrs followed by M-CSF stimulation and measured after 30 mins by Western blot analysis. Type of data set: cell-based. Particulars: time 4.5 hrs.

Data set [2] deals with T1, Macrophage colony-stimulating factor 1 receptor (Mus musculus). Description: Inhibition of CSF-1R signaling pathway activation in female C57BL/6 mouse BMDM cells assessed as reduction in ERK phosphorylation preincubated with compounds for 4 hrs followed by M-CSF stimulation and measured after 30 mins by Western blot analysis. Type of data set: cell-based. Particulars: dose 10-100 nM, time 4.5 hrs. Background: A western blot detects proteins with antibodies after separation by electrophoresis.

Data set [3] addresses T2, Macrophage colony-stimulating factor 1 receptor (Homo sapiens, UniProt P07333). As to the kind of experiment: Binding affinity to recombinant CSF-1R (unknown origin) assessed as dissociation rate constant by SPR analysis. For orientation: In SPR one partner is held on a chip, and binding of the other changes the refractive index at the surface.
The target of data set [4] is T1, Macrophage colony-stimulating factor 1 receptor (Mus musculus). As to the kind of experiment: Binding affinity to CSF-1R in female C57BL/6 mouse BMDM cells assessed as decrease in protein solubility at 100 nM incubated for 1 hrs in presence of 7 to 15 % of acetone/ethanol/acetic acid mixture by SIP assay. Type of data set: cell-based.
The subject of data set [5] is BMDM. As to the kind of experiment: Induction of repolarization of M2 like macrophage into M1 phenotype in female C57BL/6 mouse BMDM cells assessed as increase in Il6 mRNA expression at 10 to 100 nM stimulated with mouse IL4/IL-13 for 24 hrs followed by compound addition and measured after 24 hrs by qPCR analysis. Particulars: dose 10-100 nM. Type of data set: functional, cell-based. (In general: Real-time PCR tracks product formation cycle by cycle.)

The subject of data set [6] is BMDM. As to the kind of experiment: Induction of repolarization of M2 like macrophage into M1 phenotype in female C57BL/6 mouse BMDM cells assessed as increase in Nos2 mRNA expression at 10 to 100 nM stimulated with mouse IL4/IL-13 for 24 hrs followed by compound addition and measured after 24 hrs by qPCR analysis. Type of data set: functional, cell-based. Particulars: dose 10-100 nM.

Data set [7] has as its system MC-38. Description: Induction of apoptosis in mouse MC38 cells cocultured with condition medium of M2 macrophages assessed as early apoptotic cells at 10 nM by Annexin V/PI staining based flow cytometric analysis (reference value: 3.16 %). Type of data set: functional.
Data set [8] deals with MC-38. As to the kind of experiment: Induction of apoptosis in mouse MC38 cells cocultured with condition medium of M2 macrophages assessed as late apoptotic cells at 10 nM by Annexin V/PI staining based flow cytometric analysis (reference value: 1.66 %). Type of data set: functional.
For data set [9], the system named is MC-38. As to the kind of experiment: Inhibition of cell proliferation in mouse MC38 cells cocultured with condition medium of M2 macrophages at 10 to 100 nM incubated for 20 hrs by CCK8 assay. Type of data set: functional, cell-based. Particulars: dose 10-100 nM.
Data set [10] concerns Colorectal cancer organoid. Description: Antitumor activity against patient derived CRC organoids cocultured with IL-4/13 stimulated M2 macrophages assessed as reduction in number of organoids at 10 to 100 nM incubated for 72 hrs. Type of data set: functional, tissue-based. Particulars: Homo sapiens, Colorectum, dose 10-100 nM.
Data set [11] concerns Colorectal cancer organoid. As to the kind of experiment: Antitumor activity against patient derived CRC organoids assessed as reduction in number of organoids at 10 to 100 nM incubated for 72 hrs. Particulars: Homo sapiens, Colorectum, dose 10-100 nM. Type of data set: functional, tissue-based.
Data set [12] has as its target T2, Macrophage colony-stimulating factor 1 receptor. As to the kind of experiment: Inhibition of CSF-1R (unknown origin) at 1 uM.
Data set [13] has as its target BDNF/NT-3 growth factors receptor (Homo sapiens) (UniProt Q16620). As to the kind of experiment: Inhibition of TRKB (unknown origin) at 1 uM.
Data set [14] can be described thus: Clearance in Sprague-Dawley rat at 1 mg/kg, iv. Type of data set: ADME, organism-based. Particulars: in vivo.
The subject of data set [15] is MC-38. Description: Antitumor activity against mouse MC38 cells allografted in C57BL/6 mouse model assessed as reduction in tumor volume at 10 mg/kg, ip administered once daily for 14 days relative to control. Type of data set: functional. Particulars: time 14 day. Set-up: scale not given: the % may be the effect or the level left.
The subject of data set [16] is MC-38. Description: Antitumor activity against mouse MC38 cells allografted in C57BL/6 mouse model assessed as downregulation of Arg1 mRNA expression in tumor at 10 to 20 mg/kg, ip administered once daily for 14 days by qPCR analysis. Type of data set: functional, organism-based. Particulars: dose 10-20 mg/kg, time 14.0 day.
Data set [17] has as its system MC-38. As to the kind of experiment: Antitumor activity against mouse MC38 cells allografted in C57BL/6 mouse model assessed as downregulation of Chil3l mRNA expression in tumor at 10 to 20 mg/kg, ip administered once daily for 14 days by qPCR analysis. Type of data set: functional, organism-based. Particulars: dose 10-20 mg/kg, time 14.0 day.
Data set [18] relates to MC-38. Description: Antitumor activity against mouse MC38 cells allografted in C57BL/6 mouse model assessed as downregulation of […] mRNA expression in tumor at 10 to 20 mg/kg, ip administered once daily for 14 days by qPCR analysis. Type of data set: functional, organism-based. Particulars: dose 10-20 mg/kg, time 14.0 day.
In data set [19] the test system is MC-38. As to the kind of experiment: Antitumor activity against mouse MC38 cells allografted in C57BL/6 mouse model assessed as downregulation of Mrc1 mRNA expression in tumor at 10 to 20 mg/kg, ip administered once daily for 14 days by qPCR analysis. Type of data set: functional, organism-based. Particulars: dose 10-20 mg/kg, time 14.0 day.
Data set [20] deals with MC-38. As to the kind of experiment: Antitumor activity against mouse MC38 cells allografted in C57BL/6 mouse model assessed as upregulation of Il1 mRNA expression in tumor at 10 to 20 mg/kg, ip administered once daily for 14 days by qPCR analysis. Type of data set: functional, organism-based. Particulars: dose 10-20 mg/kg, time 14.0 day.
Data set [21] deals with MC-38. As to the kind of experiment: Antitumor activity against mouse MC38 cells allografted in C57BL/6 mouse model assessed as upregulation of Il6 mRNA expression in tumor at 10 to 20 mg/kg, ip administered once daily for 14 days by qPCR analysis. Type of data set: functional, organism-based. Particulars: dose 10-20 mg/kg, time 14.0 day.

T2 sequence (P07333 whole entry): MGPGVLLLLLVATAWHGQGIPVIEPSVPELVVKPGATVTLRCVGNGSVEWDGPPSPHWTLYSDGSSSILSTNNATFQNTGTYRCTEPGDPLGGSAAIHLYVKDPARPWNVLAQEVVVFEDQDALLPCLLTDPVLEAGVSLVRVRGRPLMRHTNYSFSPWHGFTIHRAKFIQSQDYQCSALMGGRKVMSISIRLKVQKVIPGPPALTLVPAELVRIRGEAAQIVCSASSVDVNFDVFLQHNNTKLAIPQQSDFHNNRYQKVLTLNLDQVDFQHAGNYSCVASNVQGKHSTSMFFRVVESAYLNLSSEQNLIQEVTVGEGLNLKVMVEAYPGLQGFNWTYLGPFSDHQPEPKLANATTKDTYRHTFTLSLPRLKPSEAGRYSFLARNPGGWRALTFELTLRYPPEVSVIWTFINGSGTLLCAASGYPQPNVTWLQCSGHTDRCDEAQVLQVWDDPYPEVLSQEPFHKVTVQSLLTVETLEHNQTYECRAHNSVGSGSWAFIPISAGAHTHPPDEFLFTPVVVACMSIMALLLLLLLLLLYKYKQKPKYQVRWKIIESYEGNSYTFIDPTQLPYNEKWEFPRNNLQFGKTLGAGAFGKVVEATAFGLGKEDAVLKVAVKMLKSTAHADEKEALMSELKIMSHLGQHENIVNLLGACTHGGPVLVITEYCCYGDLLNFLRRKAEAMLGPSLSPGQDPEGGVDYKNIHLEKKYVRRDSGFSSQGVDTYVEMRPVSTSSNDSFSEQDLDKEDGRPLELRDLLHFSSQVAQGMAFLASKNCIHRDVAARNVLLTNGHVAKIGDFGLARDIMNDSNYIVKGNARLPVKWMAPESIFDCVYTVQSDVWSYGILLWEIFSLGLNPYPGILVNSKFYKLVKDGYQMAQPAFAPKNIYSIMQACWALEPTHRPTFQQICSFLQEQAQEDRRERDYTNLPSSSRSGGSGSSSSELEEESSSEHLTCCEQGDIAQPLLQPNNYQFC
Sequence of BDNF/NT-3 growth factors receptor (Homo sapiens) (Q16620 32-822 limits assumed): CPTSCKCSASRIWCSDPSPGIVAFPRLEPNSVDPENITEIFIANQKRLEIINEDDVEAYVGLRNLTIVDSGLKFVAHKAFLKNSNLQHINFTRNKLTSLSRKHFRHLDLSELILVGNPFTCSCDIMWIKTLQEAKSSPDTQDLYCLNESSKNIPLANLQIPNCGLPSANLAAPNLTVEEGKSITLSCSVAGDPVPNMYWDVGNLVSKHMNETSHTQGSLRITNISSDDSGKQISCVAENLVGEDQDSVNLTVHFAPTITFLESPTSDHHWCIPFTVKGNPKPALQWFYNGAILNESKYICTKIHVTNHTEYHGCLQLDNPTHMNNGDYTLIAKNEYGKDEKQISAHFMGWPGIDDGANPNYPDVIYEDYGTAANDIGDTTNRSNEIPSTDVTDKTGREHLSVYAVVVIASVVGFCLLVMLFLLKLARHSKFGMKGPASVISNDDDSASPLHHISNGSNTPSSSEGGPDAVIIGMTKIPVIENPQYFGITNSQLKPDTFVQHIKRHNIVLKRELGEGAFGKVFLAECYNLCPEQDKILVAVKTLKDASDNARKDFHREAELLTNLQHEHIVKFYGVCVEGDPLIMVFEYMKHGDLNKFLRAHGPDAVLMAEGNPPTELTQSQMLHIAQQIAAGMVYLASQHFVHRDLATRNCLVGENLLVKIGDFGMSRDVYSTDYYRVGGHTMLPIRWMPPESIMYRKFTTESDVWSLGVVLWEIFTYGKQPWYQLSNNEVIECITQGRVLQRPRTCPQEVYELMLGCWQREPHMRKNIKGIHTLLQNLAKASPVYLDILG

`Cc1nc(NC(=O)N[C@@H]2CCCC[C@H]2O)ccc1Oc1c[nH]c2ncc(Cl)cc12`: the inhibition entry in data set [1], in data set [9], in data set [12] and in data set [13] was “Active” throughout. In addition, the inhibition entry in [2] was “Dose-dependent-effect”. Also, in data set [3], the koff was found to be 0.00315 s⁻¹. For the same molecule, the result in [4], in data set [5], in [6], in [10], in [16] and in data set [17] was Active. Further, the outcome in [18], in data set [19], in [20] and in data set [21] was Active. The Activity in [7] is given as 6.15%; in [8], 3.25%; in [15], 38%. Besides, the result in [11] was inactive. The same molecule gave a clearance in data set [14] of 31.9 mL/min/kg.
